From patent publication US7320989B2, “Pyridine, pyrimidine, quinoline, quinazoline, and naphthalene urotensin-II receptor antagonists” (Encysive Pharmaceuticals, Inc., priority 2003, dated 2008)

Molecular target: T1, human urotensin-II receptor (UTR cells) (Homo sapiens, UniProt Q9UKP6)
T1 construct: host or cells: 'UTR cells': TE-671 rhabdomyosarcoma cells (endogenous) or CHO cells stably expressing recombinant UTR
T1 sequence (Q9UKP6 1-389): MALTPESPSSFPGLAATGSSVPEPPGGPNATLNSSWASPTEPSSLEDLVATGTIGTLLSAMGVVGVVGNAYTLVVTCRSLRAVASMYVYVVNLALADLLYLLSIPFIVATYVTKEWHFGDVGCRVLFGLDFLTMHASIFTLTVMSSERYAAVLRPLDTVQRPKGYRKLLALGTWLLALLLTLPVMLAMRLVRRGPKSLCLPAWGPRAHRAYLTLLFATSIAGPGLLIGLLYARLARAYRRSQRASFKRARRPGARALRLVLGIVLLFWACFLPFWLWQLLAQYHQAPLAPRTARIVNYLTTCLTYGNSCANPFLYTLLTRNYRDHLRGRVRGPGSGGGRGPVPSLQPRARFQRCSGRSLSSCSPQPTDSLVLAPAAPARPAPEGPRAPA
Test: Inhibition of human urotensin-II-induced Ca2+ mobilization in UTR cells
Assay type: cell-based
Conditions: inhibition of signal induced by 1 nM human U-II, fluo-4AM, FlexStation
Experimental: 1) Inhibition of Human Urotensin-II-Induced Ca^2+ Mobilization in UTR Cells:
The function of urotensin-II was determined by measuring ligand-induced mobilization of intracellular Ca^2+ in a FlexStation scanning fluorometer (Molecular Devices). UTR cells were plated overnight at 50,000 cells/well in 96-well black/clear plates (Costar brand, Fisher 07-200-588). Cells were labeled with fluo-4AM dye (Molecular Probes, F-14201) in Hank's balanced salt solution (HBSS), 20 mM HEPES, 25 mM probenecid, pH 7.4, and then were washed with buffer. During the assay, cells were continuously monitored in the FlexStation and exposed to test compounds at a final concentration of 0.1% DMSO, followed by the addition of 1 nM human U-II. Fluorescence was read every 2 seconds for 2 minutes. The excitation and emission wavelengths used were 485 nm and 525 nm. Inhibition of the urotensin-II-induced signal was calculated using a nonlinear least square fitting program.

CN(C)CCOc1cc(Nc2ccnc3cc(C(F)(F)F)ccc23)ccc1Cl [Example 7, (4-chloro-3-(2-dimethylamino-ethoxy)-phenyl)-(7-trifluoromethyl-quinolin-4-yl)-amine]
IC50: 6.5 µM
